Earlier results as cited in patent publication US9687445B2, “Oral film containing opiate enteric-release beads” (LTS Lohmann Therapie-Systeme AG, priority 2012, dated 2017).

In the case of C=CCN1CC[C@]23c4c5ccc(O)c4O[C@H]2C(=O)CC[C@@]3(O)[C@H]1C5 [naloxone], the pKa is listed as “about 7.94”.
